Data as given in patent US5552407A (priority 1993, dated 1996).
“Also recorded” adds a separate entry of the source. Where two headings read alike, the source gives them in different places.

How the values were obtained:
[1] = system: guinea pig tracheal rings; test: Acetylcholine-induced contraction of isolated tracheal rings; settings: for minimal effective concentration: Cavia porcellus, 5 min; for spasmogenic activity by itself: absence of ACh
[2] = system: guinea pig tracheal rings; test: Relaxation or tension of pre-contracted tracheal rings
squirrel monkeys = test: Whole body plethysmograph, airway conductance / bronchoconstriction in vivo; design: species or system squirrel monkey
Procedure: (§1) Squirrel monkeys or guinea pigs were restrained in a whole body plethysmograph, a sealed box with a separate face mask for each animal. A pneumotachograph and stain gauge assembly permitted the measurement of flow. The ratio of derivatives of flow to box pressure yield a measure of airway conductance (SGAW). MEG was administered at concentrations up to 15 mg/liter of air.
This was studied by exposing a population of squirrel monkeys, which were well-trained and adapted to the experimental setting, to aerosolized cholinergic agonists and then studying the effects of MEG or cocaine pretreatment on the response to cholinergic provocation.
Care was taken to exclude any other source of potential measurement artifact, including reducing dead volumes, examining for leaks, recalibration, and so forth. The particles were dehydrated to reduce their size and facilitate airway entry. The monkeys' nares were occluded to compel mouth breathing. Greater methacholine concentrations in the nebulizer were tested until dramatic decreases in heart rate occurred, consistent with significant systemic absorption of this relatively short duration cholinergic agonist.
This may reflect the antihistaminic activity of MEG observed in vitro.

[3] = system: chicken biventer cervicis muscle; test: Chicken biventer cervicis muscle in vitro, assay for antinicotinic activity; format: cell-based
Excerpt: As observed by the present inventors, MEG was ineffective in altering the amplitude of tension produced by supramaximal electrical stimulation, or ACh-produced contraction of the chicken biventer cervicis muscle in vitro, an assay for antinicotinic activity (B. L. Ginsborg et al., Br. J. Pharmacol. 15:410 (1960); H. A. N. El-Fawal et al., Neurotoxicology 9:625 (1988)).

guinea pigs = test: Inhalation exposure safety in guinea pigs; format: in vivo, guinea pig
Procedure: as §1
Guinea pigs are known to be highly sensitive to pulmonary manipulations.

[4] = system: guinea pig tracheal rings; test: Carbachol-induced contraction of isolated tracheal rings; settings: Cavia porcellus, 5 min, read-out: reduction of carbachol-induced contraction
[5] = system: guinea pig tracheal rings; test: Histamine-induced contraction of isolated tracheal rings
[6] = system: guinea pig tracheal rings; settings: cited from earlier work
[7] = system: guinea pig tracheal rings; settings: atropine at 3, 10 and 30 nM; cited from earlier work
muscarinic receptor = settings: cited from earlier work

## COC(=O)C1=CCC2CCC1N2C (centres unmarked) [MEG, anhydroecgonine methyl ester]
[1]
  cholinergic agonist activity: lack any cholinergic agonist activity
[1]; ACh up to 2×10^-3 M
  kind of antagonism of ACh-induced contraction: reduced the magnitude of contraction produced by ACh without changing the tissue threshold of contraction; also recorded: could not be overcome; also recorded: non-competitively antagonized acetylcholine; also recorded: potent non-competitive cholinergic antagonist
[1]; read-out: concentration at and above which insurmountable non-competitive antagonism was produced
  minimal effective concentration: ≥ 0.001 µM
[1]; read-out: concentration at and above which peak tension produced by ACh was reduced
  minimal effective concentration: ≥ 0.001 µM
[1]; read-out: lowest level showing anticholinergic properties
  minimal effective concentration: 0.1 µM
[1]; MEG 10^-7 M with cocaine 5×10^-6 M
  effect of MEG on cocaine's sensitization/potentiation of ACh: antagonized cocaine's potentiation of acetylcholine's efficacy; also recorded: reduced the sensitization to ACh; also recorded: non-competitively antagonized ACh in the presence of cocaine sensitization
[1]; after washing of the preparation
  recovery of responsiveness to ACh after exposure: full responsiveness to ACh could not be restored; also recorded: no recovery after washing of the preparation; also recorded: irreversible
[2]
  effect on rings with mechanically elevated tension: failed to relax
[2]; pre-contraction with 10^-3 ACh
  concentrations for relaxation relative to those antagonizing ACh-induced contraction with preincubation: two orders of magnitude higher
  effect on rings pre-contracted with ACh: dose-dependent relaxation
Squirrel monkeys; animals pretreated with MEG
  bronchoconstriction in response to inhaled histamine: bronchoconstriction, but only at unusually high levels
Squirrel monkeys; squirrel monkeys or guinea pigs, up to 15 mg/liter of air
  airway effect of MEG given alone by inhalation: Bronchoconstriction was observed
Squirrel monkeys; squirrel monkeys with extensive histories of exposure to MEG
  bronchoconstriction in response to aerosolized ACh or methacholine: unable to produce bronchoconstriction; also recorded: no bronchoconstriction observed
[3]
  effect on amplitude of tension from supramaximal electrical stimulation or ACh-produced contraction: ineffective
Guinea pigs; 14 mg/liter of air by inhalation
  mortality: Only one exposed guinea pig died
Guinea pigs; in vivo studies
  margin of safety: wide margin of safety
[4]
  inhibition at 0.1 µM: 50%
[5]; MEG 10^-7
  effect on histamine threshold: shifting the histamine threshold upwards
[5]; MEG 10^-7 and 10^-9 M
  effect on contraction-inducing action of histamine: antagonized the contraction-inducing action of histamine

## CN1[C@@H]2CC[C@H]1C[C@@H](OC(=O)C(CO)c1ccccc1)C2 (some centres unmarked) [atropine]
[6]; 10^-7 M atropine
  carbachol concentration at which the effect was surmountable: 10^-4 M
[6]; 10^-7 atropine
  magnitude of reduction at any given carbachol concentration, compared with MEG: usually less than that produced by MEG
[7]
  kind of antagonism of ACh-induced contraction: competitively antagonized ACh-induced contraction

## COC(=O)[C@H]1[C@@H](OC(=O)c2ccccc2)C[C@@H]2CC[C@H]1N2C [cocaine, reference compound]
[1]
  spasmogenic activity by itself: did not produce tension in the absence of ACh
[1]; listed as Cocaine
  spasmogenic activity by itself: did not display any spasmogenic activity
[1]; cocaine 5×10^-6 M
  effect on maximum tension produced by ACh: increased the maximum tension produced
  lowering of the threshold at which ACh produced tension: two orders of magnitude
[1]; cocaine HCl
  concentration that decreased ACh-induced tension: 10^-4 M
[1]; cocaine HCl, 5 min incubation
  concentrations that increased ACh-induced tension: 10^-7 to 10^-5 M
[1]; cocaine at 10^-4 M
  effect on maximum response relative to ACh alone: reduced the maximum response to a third
  effect on threshold for contraction elicited by ACh: increased the threshold
[1]; cocaine at 10^-6 M
  effect on threshold for contraction elicited by ACh: lowered the threshold
[1]; cocaine at 10^-7 M, ACh 2×10^-3 M
  effect on tension produced by ACh at the highest ACh concentration: increased the tension
[1]; cocaine at concentrations below 10^-4 M
  recovery of responsiveness to ACh after exposure: restored with no desensitization
[2]; cocaine from 10^-4 M to 2×10^-3 M
  effect on tissue pre-contracted with ACh: further increase in dose-dependent tension
Muscarinic receptor
  concentration with antimuscarinic properties as assayed by QNB binding: 18 µM
